The values below are quoted from earlier work in patent publication US20210395200A1, “SYNTHETIC PROCESSES FOR THE PRODUCTION OF 1-((3S,4R)-4-(2,6-DIFLUORO-4-METHOXYPHENYL)-2-OXOPYRROLIDIN-3-YL)-3-PHENYLUREA” (BRISTOL-MYERS SQUIBB COMPANY, priority 2018, published 2021).

The target in this series is T1, FPR2 (Homo sapiens, UniProt P25090).
T1 sequence (P25090 1-351): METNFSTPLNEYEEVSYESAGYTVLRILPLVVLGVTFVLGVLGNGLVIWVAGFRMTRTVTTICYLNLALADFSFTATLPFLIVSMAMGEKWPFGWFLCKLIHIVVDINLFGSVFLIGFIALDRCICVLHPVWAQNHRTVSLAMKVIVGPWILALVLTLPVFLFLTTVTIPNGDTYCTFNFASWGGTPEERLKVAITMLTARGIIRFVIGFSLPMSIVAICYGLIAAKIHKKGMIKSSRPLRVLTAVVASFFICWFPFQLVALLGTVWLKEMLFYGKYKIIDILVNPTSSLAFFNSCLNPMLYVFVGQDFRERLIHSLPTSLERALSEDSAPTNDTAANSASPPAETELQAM
As to conditions: background statement referring to U.S. Pat. No. 9,822,069.

As for `COc1cc(F)c([C@@H]2CNC(=O)[C@H]2NC(=O)Nc2ccccc2)c(F)c1` [Compound 1, 1-((3S,4R)-4-(2,6-difluoro-4-methoxyphenyl)-2-oxopyrrolidin-3-yl)-3-phenylurea], the FPR2 agonist activity entry is “robust FPR2 agonist activity”.
